Results published in PubChem BioAssay (NCI).
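A five-concentration, 48-hour dose response in 96-well plates underlies each endpoint, interpolated linearly between surrounding concentrations. The concentration for 50% growth inhibition is given as GI50. Definition used: TGI = concentration required for complete inhibition of growth.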

Assays:
Assay in all cases: DTP human tumour cell line panel, 48 h; in the data active = GI50 below about 0.43 µM; inactive = the rest
786-0 renal = test system: 786-0 renal
A498 renal = test system: A498 renal
A549 NSCLC = test system: A549 NSCLC
ACHN renal = test system: ACHN renal
BT-549 breast = test system: BT-549 breast
CAKI-1 renal = test system: CAKI-1 renal
CCRF-CEM leukemia = test system: CCRF-CEM leukemia
COLO 205 colon = test system: COLO 205 colon
DU-145 prostate = test system: DU-145 prostate
EKVX NSCLC = test system: EKVX NSCLC
HCC-2998 colon = test system: HCC-2998 colon
HCT-116 colon = test system: HCT-116 colon
HCT-15 colon = test system: HCT-15 colon
HL-60(TB) leukemia = test system: HL-60(TB) leukemia
HOP-62 NSCLC = test system: HOP-62 NSCLC
HOP-92 NSCLC = test system: HOP-92 NSCLC
HS 578T breast = test system: HS 578T breast
HT29 colon = test system: HT29 colon
IGROV1 ovarian = test system: IGROV1 ovarian
K-562 leukemia = test system: K-562 leukemia
KM12 colon = test system: KM12 colon
LOX IMVI melanoma = test system: LOX IMVI melanoma
M14 melanoma = test system: M14 melanoma
MALME-3M melanoma = test system: MALME-3M melanoma
MCF7 breast = test system: MCF7 breast
MDA-MB-231 breast = test system: MDA-MB-231 breast
MDA-MB-435 = test system: MDA-MB-435
MOLT-4 leukemia = test system: MOLT-4 leukemia
NCI-H226 lung = test system: NCI-H226 lung
NCI-H23 lung = test system: NCI-H23 lung
NCI-H460 lung = test system: NCI-H460 lung
NCI-H522 lung = test system: NCI-H522 lung
NCI/ADR-RES ovarian = test system: NCI/ADR-RES ovarian
OVCAR-3 ovarian = test system: OVCAR-3 ovarian
OVCAR-4 ovarian = test system: OVCAR-4 ovarian
OVCAR-5 ovarian = test system: OVCAR-5 ovarian
OVCAR-8 ovarian = test system: OVCAR-8 ovarian
PC-3 prostate = test system: PC-3 prostate
RPMI-8226 leukemia = test system: RPMI-8226 leukemia
RXF 393 renal = test system: RXF 393 renal
SF-268 CNS = test system: SF-268 CNS
SF-295 CNS = test system: SF-295 CNS
SF-539 CNS = test system: SF-539 CNS
SK-MEL-2 melanoma = test system: SK-MEL-2 melanoma
SK-MEL-28 melanoma = test system: SK-MEL-28 melanoma
SK-MEL-5 melanoma = test system: SK-MEL-5 melanoma
SK-OV-3 ovarian = test system: SK-OV-3 ovarian
SN12C renal = test system: SN12C renal
SNB-19 CNS = test system: SNB-19 CNS
SNB-75 CNS = test system: SNB-75 CNS
SR leukemia = test system: SR leukemia
SW-620 colon = test system: SW-620 colon
T-47D breast = test system: T-47D breast
TK-10 renal = test system: TK-10 renal
U251 CNS = test system: U251 CNS
UACC-257 melanoma = test system: UACC-257 melanoma
UACC-62 melanoma = test system: UACC-62 melanoma
UO-31 renal = test system: UO-31 renal
MDA-N = test system: MDA-N

CCn1c(-c2nonc2N)nc2c(C#CC(C)(C)O)ncc(OC3CCNCC3)c21
17.3 µM: TGI (OVCAR-3 ovarian)
> 22.5 µM: TGI (MCF7 breast)
19 µM: TGI (HL-60(TB) leukemia)
> 21.9 µM: TGI (COLO 205 colon)
> 25 µM: TGI (786-0 renal) | TGI (A549 NSCLC) | TGI (ACHN renal) | TGI (BT-549 breast) | TGI (CAKI-1 renal) | TGI (CCRF-CEM leukemia) | TGI (DU-145 prostate) | TGI (EKVX NSCLC) | TGI (HCC-2998 colon) | TGI (HCT-116 colon) | TGI (HCT-15 colon) | TGI (HOP-62 NSCLC) | TGI (HOP-92 NSCLC) | TGI (HS 578T breast) | TGI (HT29 colon) | TGI (IGROV1 ovarian) | TGI (K-562 leukemia) | TGI (KM12 colon) | TGI (LOX IMVI melanoma) | TGI (M14 melanoma) | TGI (MALME-3M melanoma) | TGI (MDA-MB-231 breast) | TGI (MDA-MB-435) | TGI (MOLT-4 leukemia) | TGI (NCI-H226 lung) | TGI (NCI-H23 lung) | TGI (NCI-H460 lung) | TGI (NCI/ADR-RES ovarian) | TGI (OVCAR-4 ovarian) | TGI (OVCAR-5 ovarian) | TGI (OVCAR-8 ovarian) | TGI (PC-3 prostate) | TGI (RPMI-8226 leukemia) | TGI (SF-268 CNS) | TGI (SF-295 CNS) | TGI (SF-539 CNS) | TGI (SK-MEL-28 melanoma) | TGI (SK-MEL-5 melanoma) | TGI (SK-OV-3 ovarian) | TGI (SN12C renal) | TGI (SNB-19 CNS) | TGI (SNB-75 CNS) | TGI (SW-620 colon) | TGI (T-47D breast) | TGI (TK-10 renal) | TGI (U251 CNS) | TGI (UACC-257 melanoma) | TGI (UACC-62 melanoma) | TGI (UO-31 renal)
> 21.3 µM: TGI (SR leukemia)
8.82 µM: TGI (NCI-H522 lung)
19.4 µM: TGI (SK-MEL-2 melanoma)
13.4 µM: TGI (A498 renal)
13.3 µM: TGI (RXF 393 renal)
active: GI50 (A498 renal) 0.0958 µM
inactive: GI50 (786-0 renal) 6.79 µM | GI50 (A549 NSCLC) > 25 µM | GI50 (ACHN renal) > 25 µM | GI50 (BT-549 breast) 8.78 µM | GI50 (CAKI-1 renal) > 25 µM | GI50 (CCRF-CEM leukemia) 5.18 µM | GI50 (COLO 205 colon) 4.89 µM | GI50 (DU-145 prostate) 10.4 µM | GI50 (EKVX NSCLC) > 25 µM | GI50 (HCC-2998 colon) 7.08 µM | GI50 (HCT-116 colon) 8.15 µM | GI50 (HCT-15 colon) > 25 µM | GI50 (HL-60(TB) leukemia) 8.38 µM | GI50 (HOP-62 NSCLC) > 16.4 µM | GI50 (HOP-92 NSCLC) > 25 µM | GI50 (HS 578T breast) 2.11 µM | GI50 (HT29 colon) 8.93 µM | GI50 (IGROV1 ovarian) 0.696 µM | GI50 (K-562 leukemia) 11.1 µM | GI50 (KM12 colon) 4.52 µM | GI50 (LOX IMVI melanoma) 8.5 µM | GI50 (M14 melanoma) 21.6 µM | GI50 (MALME-3M melanoma) > 25 µM | GI50 (MCF7 breast) 3.93 µM | GI50 (MDA-MB-231 breast) 20 µM | GI50 (MDA-MB-435) 13.6 µM | GI50 (MOLT-4 leukemia) 6.32 µM | GI50 (NCI-H226 lung) 23.3 µM | GI50 (NCI-H23 lung) > 23.7 µM | GI50 (NCI-H460 lung) 6.86 µM | GI50 (NCI-H522 lung) 4.42 µM | GI50 (NCI/ADR-RES ovarian) > 25 µM | GI50 (OVCAR-3 ovarian) 5.38 µM | GI50 (OVCAR-4 ovarian) 14.1 µM | GI50 (OVCAR-5 ovarian) > 25 µM | GI50 (OVCAR-8 ovarian) 12.9 µM | GI50 (PC-3 prostate) 7.58 µM | GI50 (RPMI-8226 leukemia) > 25 µM | GI50 (RXF 393 renal) 2.84 µM | GI50 (SF-268 CNS) 16.6 µM | GI50 (SF-295 CNS) 9.09 µM | GI50 (SF-539 CNS) 2.95 µM | GI50 (SK-MEL-2 melanoma) 8.01 µM | GI50 (SK-MEL-28 melanoma) 14.9 µM | GI50 (SK-MEL-5 melanoma) > 20.1 µM | GI50 (SK-OV-3 ovarian) 3.86 µM | GI50 (SN12C renal) 9.21 µM | GI50 (SNB-19 CNS) 7.83 µM | GI50 (SNB-75 CNS) 1.42 µM | GI50 (SR leukemia) 9.64 µM | GI50 (SW-620 colon) 10.3 µM | GI50 (T-47D breast) 1.21 µM | GI50 (TK-10 renal) 6.6 µM | GI50 (U251 CNS) 3.74 µM | GI50 (UACC-257 melanoma) > 25 µM | GI50 (UACC-62 melanoma) 15.8 µM | GI50 (UO-31 renal) > 25 µM

COc1ccc(-c2oc3ccccc3c(=O)c2O)cc1OC
71.5 µM: TGI (A498 renal)
23.4 µM: TGI (U251 CNS)
35.1 µM: TGI (SF-295 CNS)
76.8 µM: TGI (TK-10 renal)
53 µM: TGI (SF-268 CNS)
47.4 µM: TGI (HOP-62 NSCLC)
> 100 µM: TGI (A549 NSCLC) | TGI (ACHN renal) | TGI (CAKI-1 renal) | TGI (CCRF-CEM leukemia) | TGI (COLO 205 colon) | TGI (DU-145 prostate) | TGI (EKVX NSCLC) | TGI (HCT-116 colon) | TGI (HCT-15 colon) | TGI (HT29 colon) | TGI (IGROV1 ovarian) | TGI (K-562 leukemia) | TGI (LOX IMVI melanoma) | TGI (M14 melanoma) | TGI (MALME-3M melanoma) | TGI (MCF7 breast) | TGI (MDA-MB-231 breast) | TGI (MDA-MB-435) | TGI (MDA-N) | TGI (NCI-H460 lung) | TGI (NCI-H522 lung) | TGI (NCI/ADR-RES ovarian) | TGI (OVCAR-3 ovarian) | TGI (OVCAR-5 ovarian) | TGI (PC-3 prostate) | TGI (SK-MEL-28 melanoma) | TGI (SK-MEL-5 melanoma) | TGI (SK-OV-3 ovarian) | TGI (SNB-19 CNS) | TGI (SW-620 colon) | TGI (T-47D breast) | TGI (UACC-257 melanoma) | TGI (UACC-62 melanoma) | TGI (UO-31 renal)
